# Data as given in patent US4994582A, “Novel antibiotic NK130119” (Nippon Kayaku Kabushiki Kaisha, priority 1989, dated 1991).
# Assays:
# [1] = system: bovine adrenal capillary endothelial cells; assay: growth-inhibitory effect on endothelial cells, Coulter counter; type: cell-based; settings: Bos taurus, Endothelial cell, 72 h, three days
# Procedure: The growth-inhibitory effect of the compound of the present invention on endothelial cells was examined. A 96-well plate was inoculated with bovine adrenal capillary endothelial cells at a ratio of 1×10^4 cells per well. One day after the inoculation, the compound of the present invention was added thereto at various concentrations. Cells in each well were counted with a Coulter counter three days after the addition to thereby evaluate the growth-inhibitory effect of the test compound on the capillary endothelial cells. […] Thus the IC50 of the compound of the present invention on the endothelial cells was 0.0003 μg/ml, showing a strong growth-inhibitory effect.
# [2] = system: vascularization by the Ehrlich asoites tumor cells crude extract; assay: vascularization-inhibitory effect, rabbit corneal assay; type: in vivo; settings: slow-releasing pellet in cornea
# Procedure: The vascularization-inhibitory effect of the compound of the present invention was examined by rabbit corneal assay reported by M. A. Gimbrone et al. (J. National Cancer Inst., 52, 412 (1974)). Namely, the center of the cornea of the eye of a rabbit was incised with a knife at a length of approximately 2 mm to thereby form a pouch. Then a slow-releasing pellet containing 100 μg of a crude extract of Ehrlich asoites tumor cells, which had been preliminarily prepared according to a method proposed by R. Langer et al. (Nature, 263, 797 ([…])), was introduced into the pouch. Further another slow-releasing pellet containing 0.3 to 81 μg of the compound of the present invention was introduced there into so as to contact these pellets with each other.
# [3] = system: Aspergillus oryzae; assay: antifungal spectrum on Czapek Dox solution agar; type: cell-based; settings: read-out: Minimum inhibitory concentration
# Description: (§1) the antifungal spectrum of the compound of the present invention was examined.
# [4] = system: Altenaria kikuchiana; assay: antifungal spectrum on Czapek Dox solution agar; type: cell-based; settings: read-out: Minimum inhibitory concentration
# Description: as §1
# [5] = system: Mycosphaerella melonis; assay: antifungal spectrum on Czapek Dox solution agar; type: cell-based; settings: read-out: Minimum inhibitory concentration
# Description: as §1
# [6] = system: Candida albicans; assay: antifungal spectrum on Czapek Dox solution agar; type: cell-based; settings: read-out: Minimum inhibitory concentration
# Description: as §1
# [7] = system: Mucor javanicus; assay: antifungal spectrum on Czapek Dox solution agar; type: cell-based; settings: read-out: Minimum inhibitory concentration
# Description: as §1
# [8] = system: Fusarium roseum f. sp.; assay: antifungal spectrum on Czapek Dox solution agar; type: cell-based; settings: Fusarium sambucinum, read-out: Minimum inhibitory concentration
# Description: as §1
# [9] = system: Aspergillus niger; assay: antifungal spectrum on Czapek Dox solution agar; type: cell-based; settings: read-out: Minimum inhibitory concentration
# Description: as §1
# [10] = system: Penicillium chrysogenum; assay: antifungal spectrum on Czapek Dox solution agar; type: cell-based; settings: read-out: Minimum inhibitory concentration
# Description: as §1
# [11] = system: Sporobolomyces salmonicolor; assay: antifungal spectrum on Czapek Dox solution agar; type: cell-based; settings: read-out: Minimum inhibitory concentration
# Description: as §1
# [12] = system: mouse pulmonary cancer cells (LL); assay: growth-inhibitory effect on mouse pulmonary cancer cells, dye exclusion method; type: cell-based; settings: 72 h, three days
# Procedure: the growth-inhibitory effects of the compound of the present invention on mouse pulmonary cancer cells (LL) and human plumonary cancer cells (PC-3) were examined.
# A 96-well plate was inoculated with mouse polmonary cancer cells at a ratio of 8.0×10^2 cells per well, while another 96-well plate was inoculated with human pulmonary cancer cells at a ratio of 2.5×10^3 per well. These cells were incubated in an incubator at 37° C. under 5% CO2 for 24 hours. Then the compound of the present invention was added thereto at various concentrations. Cells in each well were counted by the dye exclusion method three days after the addition to thereby evaluate the growth-inhibitory effect of the test compound on the mouse pulmonary cancer cells (LL) and that on the human pulmonary cancer cells (PC-3).
# [13] = system: two-spoted spider mite acarids (a Kelthane-resistant species); assay: insecticidal action, mortality of two-spoted spider mite imagos; type: in vivo; settings: after 2 days
# Procedure: The insecticidal action of the compound of the present invention was examined by the following method.
# (1) An imago of two-spoted spider mite acarids (a Kelthane-resistant species) was used as a test vermin, and the mortality rate thereof was assaYed according to an ordinary method (described on page 327 of "NoYaku Seibutsu Kenteiho" edited by Toyoji Hosotsuji).
# Specifically, a solution of the compound of the present invention in acetone (0.1%) was added to 0.5 ml of an aqueous sucrose solution (1%) to have a predetermined concentration. Ten two-spoted spider mite acarids were released in a vessel (20-ml beaker), and the vessel was covered with a paraffin film. The agent solution prepared above was put on the paraffin film, and another praffin film was put thereon. The beaker was allowed to stand in a thermostatic chamber (20°±1° C.) for a predetermined period of time, and the life and death of the test vermin were investigated.
structure (smiles),measurement,setting,value
CCC1/C=C/C=C/CC(C)C(O)C(C)(O)C(=O)C(C)C(O)C(C)C(=O)C(C)C(O)C(C)/C=C/C(=O)OC2C(C)C(CC1)OC1(CCC(C)C(CC(C)O)O1)C2CC (stereo not shown) [NK130119],IC50,[1]; bovine adrenal capillary endothelial cells,0.0003 µg/mL
same,inhibition at 0.000128 µg/mL,"[1]; endothelial cells, 0.000128 μg/ml, read-out: Growth-inhibitory ratio",35.2%
same,inhibition at 0.00064 µg/mL,"[1]; endothelial cells, 0.00064 μg/ml, read-out: Growth-inhibitory ratio",62.9%
same,inhibition at 0.0032 µg/mL,"[1]; endothelial cells, 0.0032 μg/ml, read-out: Growth-inhibitory ratio",77.9%
same,inhibition at 0.016 µg/mL,"[1]; endothelial cells, 0.016 μg/ml, read-out: Growth-inhibitory ratio",90.1%
same,retardation of vascularization compared with control group,[2]; 1 μg or above,significantly retarded till the fourth day
same,retardation of vascularization compared with control group,[2]; 2.7 ug or above,till the eighth day
same,MIC,[3],1.56 µg/mL
same,MIC,[4],0.78 µg/mL
same,MIC,[5],1.56 µg/mL
same,MIC,[6],> 100 µg/mL
same,MIC,[7],> 100 µg/mL
same,MIC,[8],0.39 µg/mL
same,MIC,[9],1.56 µg/mL
same,MIC,[10],0.78 µg/mL
same,MIC,[11],> 100 µg/mL
same,IC50,[12]; mouse pulmonary cancer cells (LL),0.0085 µg/mL
same,inhibition at 0.0006 µg/mL,"[12]; mouse pulmonary cancer cells, 0.0006 μg/ml, read-out: Growth-inhibitory ratio",21.6%
same,inhibition at 0.0024 µg/mL,"[12]; mouse pulmonary cancer cells, 0.0024 μg/ml, read-out: Growth-inhibitory ratio",14.5%
same,inhibition at 0.0098 µg/mL,"[12]; mouse pulmonary cancer cells, 0.0098 μg/ml, read-out: Growth-inhibitory ratio",54.4%
same,inhibition at 0.039 µg/mL,"[12]; mouse pulmonary cancer cells, 0.039 μg/ml, read-out: Growth-inhibitory ratio",61%
same,inhibition at 0.156 µg/mL,"[12]; mouse pulmonary cancer cells, 0.156 μg/ml, read-out: Growth-inhibitory ratio",66.2%
same,inhibition at 0.625 µg/mL,"[12]; mouse pulmonary cancer cells, 0.625 μg/ml, read-out: Growth-inhibitory ratio",68.8%
same,inhibition at 2.5 µg/mL,"[12]; mouse pulmonary cancer cells, 2.5 μg/ml, read-out: Growth-inhibitory ratio",83.7%
same,inhibition at 10 µg/mL,"[12]; mouse pulmonary cancer cells, 10 μg/ml, read-out: Growth-inhibitory ratio",102%
same,"Mortality rate, imagos of two-spoted spider mite",[13]; 1 ppm,20%
same,"Mortality rate, imagos of two-spoted spider mite",[13]; 10 ppm,60%
same,"Mortality rate, imagos of two-spoted spider mite",[13]; 100 ppm,100%
